Test results reported in patent US9200171B2, “AZO compound and ink containing the compound” (MITSUBISHI CHEMICAL CORPORATION, priority 2011, dated 2015).
In brackets after ≈: the same amount, converted by molar mass.

Columns and labels:
[1] = Solubility C (saturated concentration at 5° C.) of compound in low-polarity solvent and product εC; assay type: physicochemical; conditions: for ε · C: C at 5° C.; for solubility at 24 h: organic solvent or mixture, thermodynamic from solid; for solubility at 24 h / Solubility: at 5° C.
Method: The solubility C of each compound in each solvent was measured as follows.
Each compound was added to each solvent until a dissolution residue came to remain, and the mixture was subjected to an ultrasonic treatment for 30 minutes at 30° C. After the mixture was allowed to stand at 5° C. for 24 hours, centrifugal filtration was performed through a filter of 0.1 μm using a microcentrifuge (centrifugal force 5200×g). The resulting saturated solution was diluted to an appropriate concentration, and measurement of absorption spectra was performed on Hitachi spectrophotometer U-4100 using a quartz cell having an optical path length for measurement of 10 mm. The concentration of each compound was determined from a relationship between the absorbance at the absorption-maximum wavelength λmax (nm) and the molar extinction coefficient ε (L·mol^−1·cm^−1) previously measured, and the solubility C (mol·L^−1) was calculated. Moreover, the value of the product of the molar extinction coefficient ε (L·mol^−1·cm^−1) and the solubility C (mol·L^−1), εC, was determined.
Sudan Black B (manufactured by Tokyo Chemical Industry Co., Ltd.) that is a commercially available oil-soluble black dye was added to n-decane (relative permittivity 2.0, solubility in water 1 mg/L or less) until a dissolution residue came to remain, and the mixture was subjected to an ultrasonic treatment for 30 minutes at 30° C. After the mixture was allowed to stand at 5° C. for 24 hours, centrifugal filtration was performed through a filter of 0.1 μm using a microcentrifuge (centrifugal force 5200×g). The resulting saturated n-decane solution was diluted to an appropriate concentration.

[2] = Absorption-maximum wavelength λmax, molar extinction coefficient ε and solution colour in each solvent; assay type: physicochemical
Method: Each of the compounds 1 to 15 and the comparative example compounds 1 and 2 (1 mg each) was dissolved in each solvent (100 ml) and measurement of absorption spectra was performed on Hitachi spectrophotometer U-4100 using a quartz cell having an optical path length for measurement of 10 mm. From the resulting spectra, absorption-maximum wavelength λmax (nm) and molar extinction coefficient ε ([…]) were determined.

[3] = Isopar M, at absorption-maximum wavelength
[4] = n-decane, at absorption-maximum wavelength
[5] = tetradecane, at absorption-maximum wavelength
[6] = mixed solvent of n-decane/Isopar L (mixing ratio 1/1)

| Compound | ε · C ([1]; Isopar M) | ε · C ([1]; n-decane) | solubility at 24 h ([1]; in n-decane) [mM] | ε · C ([1]; tetradecane) | Absorption-maximum wavelength ([2]; Isopar M) [nm] | Color tone ([2]; Isopar M solution) | ε [2, 3] [L/mol/cm] | Absorption-maximum wavelength ([2]; n-decane) [nm] | Color tone ([2]; n-decane solution) | ε [2, 4] [L/mol/cm] | Absorption-maximum wavelength ([2]; tetradecane) [nm] | Color tone ([2]; tetradecane solution) | ε [2, 5] [L/mol/cm] | Solubility ([1]; in n-decane) [mM] | Solubility ([1]; in tetradecane) [mM] | further results |
| --- | --- | --- | --- | --- | --- | --- | --- | --- | --- | --- | --- | --- | --- | --- | --- | --- |
| CCCCC(CC)CNc1ccc(NCC(CC)CCCC)c2c1C(=O)c1ccccc1C2=O (stereo not drawn) [Comparative example compound 1, reference compound] | 1200 cm⁻¹ | 460 cm⁻¹ | 27 (≈ 12.5 mg/mL) | 1600 cm⁻¹ | 651 | blue | 17000 | 652 | blue | 17000 | 651 | blue | 17000 | – | – | solubility at 24 h ([1]; in Isopar M): 71 mM (≈ 32.9 mg/mL); solubility at 24 h ([1]; in tetradecane): 94 mM (≈ 43.5 mg/mL) |
| C=CCn1c(N=Nc2ccc(N(CCC)CCC)cc2NC(C)=O)nc(C#N)c1C#N [Comparative example compound 2, reference compound] | ≤ 10 or cm^−1 | ≤ 10 or cm^−1 | ≤ 0.01 | ≤ 10 or cm^−1 | 514 | red | 39000 | 512 | red | 34000 | 514 | red | 39000 | – | – | solubility at 24 h ([1]; in Isopar M): ≤ 0.01 mM; solubility at 24 h ([1]; in tetradecane): ≤ 0.01 mM |
| CCCCc1ccc(N=Nc2cc(C#N)c(/N=N/c3ccc(N(CC(CC)CCCC)CC(CC)CCCC)cc3NC(C)=O)s2)cc1 (stereo not drawn) [Compound 1] | – | 1800 cm⁻¹ | 24 (≈ 16.1 mg/mL) | – | – | – | – | 619 | blue | 76000 | – | – | – | – | – | – |
| CCCCC(CC)CN(CC(CC)CCCC)c1ccc(N=Nc2sc(N=Nc3ccc(C(=O)OCC(C)C)cc3)cc2C#N)c(CC)c1 (stereo not drawn) [Compound 2] | – | 1500 cm⁻¹ | – | 1500 cm⁻¹ | – | – | – | 635 | blue | 57000 | 637 | blue | 54000 | 27 (≈ 18.5 mg/mL) | 27 (≈ 18.5 mg/mL) | – |
| CCCCc1ccc(N=Nc2cc(C#N)c(N=Nc3cc(OC)c(N(CC(CC)CCCC)CC(CC)CCCC)cc3NC(C)=O)s2)cc1 (stereo not drawn) [Compound 3] | 11100 cm⁻¹ | 9900 cm⁻¹ | – | 10600 cm⁻¹ | 668 | blue | 72000 | 667 | blue | 73000 | 669 | blue | 73000 | 140 (≈ 98 mg/mL) | 150 (≈ 105 mg/mL) | ε · C ([1]; Isopar L): 8200 cm⁻¹; Solubility ([1]; in Isopar L): 110 mM (≈ 77 mg/mL); Solubility ([1]; in Isopar M): 150 mM (≈ 105 mg/mL); Solubility ([1]; in mixed solvent of n-decane/Isopar L (mixing ratio 1/1)): 63 mM; ε · C [1, 6]: 4700 cm⁻¹; Absorption-maximum wavelength ([2]; Isopar L): 667 nm; Color tone ([2]; Isopar L solution): blue; ε ([2]; Isopar L, at absorption-maximum wavelength): 75000 L/mol/cm; Absorption-maximum wavelength [2, 6]: 667 nm; Color tone [2, 6]: blue; ε [2, 6]: 75000 L/mol/cm |
| CCCCC(CC)CN(CC(CC)CCCC)c1ccc(N=Nc2sc(C=C(C#N)C#N)c(Cl)c2C#N)c(NC(=O)C(CC)CCCC)c1 (stereo not drawn) [Compound 11] | – | 5300 cm⁻¹ | – | – | – | – | – | 642 | blue | 60000 | – | – | – | 89 (≈ 62.7 mg/mL) | – | – |

Further lines, with some results ahead:

| ε · C ([1]; Isopar M) | ε · C ([1]; n-decane) | solubility at 24 h ([1]; in n-decane) [mM] | ε · C ([1]; tetradecane) | Absorption-maximum wavelength ([2]; Isopar M) [nm] | Color tone ([2]; Isopar M solution) | ε [2, 3] [L/mol/cm] | Absorption-maximum wavelength ([2]; n-decane) [nm] | Color tone ([2]; n-decane solution) | ε [2, 4] [L/mol/cm] | Absorption-maximum wavelength ([2]; tetradecane) [nm] | Color tone ([2]; tetradecane solution) | ε [2, 5] [L/mol/cm] | Solubility ([1]; in n-decane) [mM] | Solubility ([1]; in tetradecane) [mM] | Compound | further results |
| --- | --- | --- | --- | --- | --- | --- | --- | --- | --- | --- | --- | --- | --- | --- | --- | --- |
| – | 1800 cm⁻¹ | 27 (≈ 18.9 mg/mL) | 1300 cm⁻¹ | – | – | – | 638 | blue | 66000 | 640 | blue | 64000 | – | – | CCCCC(CC)CN(CC(CC)CCCC)c1ccc(/N=N/c2sc(N=Nc3ccc(C(=O)OCC(C)C)cc3)cc2C#N)c(C(C)C)c1 (stereo not drawn) [Compound 4] | solubility at 24 h ([1]; in tetradecane): 20 mM (≈ 14 mg/mL) |
| – | 16000 cm⁻¹ | 220 (≈ 157 mg/mL) | – | – | – | – | 667 | blue | 75000 | – | – | – | – | – | CCCCCc1ccc(N=Nc2cc(C#N)c(/N=N/c3cc(OC)c(N(CC(CC)CCCC)CC(CC)CCCC)cc3NC(C)=O)s2)cc1 (stereo not drawn) [Compound 5] | – |
| 10400 cm⁻¹ | 7000 cm⁻¹ | – | 9300 cm⁻¹ | 634 | blue | 65000 | 633 | blue | 66000 | 635 | blue | 65000 | 110 (≈ 80 mg/mL) | 140 (≈ 102 mg/mL) | CCCCC(CC)COC(=O)c1ccc(N=Nc2cc(C#N)c(N=Nc3ccc(N(CC(CC)CCCC)CC(CC)CCCC)cc3C)s2)cc1 (stereo not drawn) [Compound 6] | Solubility ([1]; in Isopar M): 160 mM (≈ 116 mg/mL) |
| – | 6900 cm⁻¹ | – | – | – | – | – | 640 | blue | 50000 | – | – | – | 140 (≈ 92 mg/mL) | – | CCCCc1ccc(N=Nc2cc(C#N)c(N=Nc3cc(OC)c(N(CC(CC)CCCC)CC(CC)CCCC)cc3C)s2)cc1 (stereo not drawn) [Compound 7] | – |
| 3400 cm⁻¹ | 4700 cm⁻¹ | – | 3500 cm⁻¹ | 638 | blue | 78000 | 637 | blue | 79000 | 639 | blue | 79000 | 59 (≈ 45.4 mg/mL) | 44 (≈ 33.9 mg/mL) | CCCCC(CC)COC(=O)c1ccc(N=Nc2cc(C#N)c(N=Nc3ccc(N(CC(CC)CCCC)CC(CC)CCCC)cc3NC(C)=O)s2)cc1 (stereo not drawn) [Compound 8] | Solubility ([1]; in Isopar M): 44 mM (≈ 33.9 mg/mL) |
| 2000 cm⁻¹ | 3300 cm⁻¹ | 58 (≈ 33.5 mg/mL) | 3300 cm⁻¹ | 618 | blue | 59000 | 617 | blue | 57000 | 618 | blue | 59000 | – | – | CCCCC(CC)CN(CC(CC)CCCC)c1cc(NC(C)=O)c(/N=N/c2nc(Cl)c(C=O)s2)cc1OC (stereo not drawn) [Compound 9] | solubility at 24 h ([1]; in Isopar M): 34 mM (≈ 19.7 mg/mL); solubility at 24 h ([1]; in tetradecane): 34 mM (≈ 19.7 mg/mL) |
| 5500 cm⁻¹ | 5700 cm⁻¹ | – | 2000 cm⁻¹ | 657 | blue | 54000 | 656 | blue | 61000 | 658 | blue | 55000 | 93 (≈ 70.4 mg/mL) | 36 (≈ 27.3 mg/mL) | CCCCC(CC)COC(=O)C(C#N)=Cc1sc(N=Nc2cc(OC)c(N(CC(CC)CCCC)CC(CC)CCCC)cc2NC(C)=O)nc1Cl (stereo not drawn) [Compound 10] | Solubility ([1]; in Isopar M): 64 mM (≈ 48.5 mg/mL) |
| – | 12000 cm⁻¹ | – | – | – | – | – | 582 | blue | 46000 | – | – | – | 250 (≈ 168 mg/mL) | – | CCCCC(CC)CN(CC(CC)CCCC)c1cc(NC(C)=O)c(N=Nc2sc(C(=O)OCC)c(C)c2C(=O)OCC)cc1OC (stereo not drawn) [Compound 12] | – |
| – | 4400 cm⁻¹ | – | – | – | – | – | 667 | blue | 76000 | – | – | – | 59 (≈ 42.1 mg/mL) | – | CCCCc1ccc(N=Nc2cc(C#N)c(N=Nc3cc(OC)c(N(CC(CC)CCCC)CC(CC)CCCC)cc3NC(=O)CC)s2)cc1 (stereo not drawn) [Compound 13] | – |
